Laboratory results from patent US12649734B2, “Bioavailable protein disulfide isomerase inhibitors” (THE CLEVELAND CLINIC FOUNDATION, priority 2020, dated 2026).
One block for each molecule: values may come before it.

Key:
[1] = test system: MM1.S cells; assay: Cell viability assay (CellTiter-Glo), MM1.S; format: cell-based, human; settings: Homo sapiens; MM1.S.luc; read-out: IC50 concentration
Procedure: Cell vi-ability and LD50 for inhibitors were measured in 96 well culture plates (2×10^4 cells/well) after 72 h of treatment using CellTiter-Glo® Luminescent Cell Viability Assay (Promega, Madison, WI, USA). (A) Cell survival assay with MM1.S.luc and BTZ-resistant MM1.S.luc cells. […] (C) Comparison of PDIA1 protein levels in MM1.S.luc and MM1.S.luc BTZ-resistant cells. Band intensity was calculated with Image Lab Version 5.2.1. (D) Cell survival assay with 5TGM1.luc and (E) BTZ-resistant 5TGM1.luc cells. (F) MM1.S cell line was exposed to CCF642-34, and BTZ for 72 h for synergistic drug combination test according to Chou and Talalay method. If the […] remained less than 1, the two drugs were determined as synergistic. […] The number of colony-forming units were plotted for each treatment.
(§1) Cell viability assay: Cell viability was measured in 96 well culture plates (2×10^4 cells/well) using CellTiter-Glo® Luminescent Cell Viability Assay (Promega, Madison, WI, USA) according to the manufacturer's protocol.

[2] = test system: BTZ-resistant MM1.S cells; assay: Cell viability assay, BTZ-resistant MM1.S; format: cell-based, human; settings: Homo sapiens, MM1.S; MM1S.luc BTZ; read-out: IC50 concentration
Procedure: Cells and reagents: MM1.S-luc-BTZ (BTZ®)-resistant cell line was made in our laboratory. Starting with 1 nM concentration, MM1.S-luc cells were treated with BTZ and exposed continuously for 5 days and removed for 2 days before re-exposure to the drug until the growth of the cells mimicked the parental cell line. Incremental increase of the drug was applied until the concentration of 8 nM was reached. […] BTZ was procured from Millennium Pharmaceuticals Inc. All cell lines that are used in this study and their detailed information are shown in table 1 below.
as §1

[3] = test system: MM1.S cells; assay: ER stress response and apoptosis markers by immunoblotting; format: cell-based, human; settings: 3 μM, 4 h
Procedure: FIGS. 6A-6C provide graphs and images showing PDIA1 inhibition by CCF642 analogues induce acute endoplasmic reticulum (ER) stress response and lead to apoptosis. Multiple myeloma cells (MM1.S) were treated with 3 μM of CCF642, -34, -37, -39, -34-A, and Tunicamycin (as a control). The status of ER sensors (XBP-1S, IRE1α oligomerization, and induction of C/EBP homology protein (CHOP)) along with apoptosis markers (cleaved caspase 3 and PARP1) were monitored. (A) MM1.S cells were treated for 4 h with CCF642 and its indicated analogues. (B) MM1.S cells were treated with CCF642-34 in a time course. (C) MM1.S, MM1.S.luc, and BTZ-resistant MM1.S.luc cells were stained with the H2DCFDA ROS detection and then treated with 2.5 μM CCF642-34 up to 4 h.
Immunoblotting: Immunoblotting was performed as described previously (Dallas et al., Blood, 93, 1697-1706 (1999)) using primary antibodies against PDIA1 (Cat #3501), XBP1-S (Cat #12782); IRE1α (Cat #3294), C/EBP homologous protein (CHOP) (Cat #5554), Caspase-3 (Cat #9665), PARP1 (Cat #9542), and GAPDH (Cat #3683) purchased from Cell Signaling Technology, Inc. (Danvers, MA, USA) and used at 1:1000 dilution, unless mentioned otherwise.

[4] = test system: RPMI-8226 cells vs CD34+ HSPCs derived from healthy bone marrow; assay: In vitro colony-forming assay, myeloma cells versus normal bone marrow CD34+ cells; format: cell-based, human; settings: colonies scored on day 14
Procedure: In vitro colony-forming assays: Mononuclear cells derived from bone marrow or purified CD34+ cells from a healthy donor, cord blood, or MM cell RPMI-8226 were grown in semi-solid methylcellulose media (MethoCult™, H4435; STEMCELL Technologies) in the presence of indicated compounds and concentrations. A total of 10,000/mL normal bone marrow CD34+ cells and 1000/mL RPMI-8226 cells were plat-ed, and colonies were scored on day 14.

[5] = test system: MM1.S cells; assay: RNA-seq gene expression profiling; format: cell-based, human; settings: 3 μM, 6 h
Procedure: FIGS. 7A-7H provide graphs showing CCF642-34 is selective for PDIA1 inhibition-induced ER stress response pathway. MM1.S cells were treated with 3 μM of either CCF642 or CCF642-34 for 6 h, and gene expression analysis was performed by RNA sequencing. (A,B) Volcano plots showing CCF642-34 and CCF642 compared to DMSO control. The criteria for differential expression were at least a 2-fold change with p value less than 0.05. The analysis was performed in Originlab, Version 2019b (OriginLab Corporation, Northampton, MA, USA). […] The diagram was generated using a web-based bioinformatics server. (D,E) Hierarchical clusterings with heat map of MM1.S cells treated with vehicle CCF642-34 or CCF642 are shown for response to endoplasmic reticulum stress and unfolded protein response gene sets. (F-H) Heat maps of PERK and ATF6 target genes, Nrf2, and ER-associated degradation (ERAD) pathways are compared between control and inhibitor-treated MM1.S cells. Data analysis was performed using a web-based server and the Broad Institute Morpheus software.
RNA-seq and analysis: MM1.S cells were treated with 3 μM of either CCF642 or CCF642-34 for 6 h, and RNA was purified by using the NucleoSpin RNA kit (Takara Bio USA, Inc.; cat. #740955) according to the manufacturer's instruction. The RNA sequencings were completed as reported previously. Guan et al., Commun. Biol., 3, 1-13 (2020) The RNA-seq data were sub-mitted to the Gene Expression Omnibus (GEO) repository at the National Center for Biotechnology Information (NCBI) archives, with assigned GEO accession number GSE167097.

[6] = Solubility in aqueous buffer (turbidity assay); format: physicochemical
Excerpt: To improve its solubility, potency, and selectivity, the inventors used the CCF642 binding space in the catalytic site for in silico modeling and mapped the binding site to the helix-turn-helix motif composed of the WCGHCK binding site in the aa′ and bb′ domains of the PDIA1 active site (FIG. 4A,B). […] The inventors chose to accomplish this by attaching a 3-carbon flexible linker with a terminal primary amino group to the corresponding phenol followed by coupling to desired L-amino acids (FIGS. 1, 2, 4A). The N-BOC penultimate intermediates were purified using flash silica gel chromatography and then deprotected using 4N HCl in dioxane to generate the corresponding hydrochloride (HCL) salts. The compounds for testing were fully characterized by ^1H, ^13C NMR and high-resolution mass spectroscopy.

[7] = molecular target: PDI (Homo sapiens, UniProt P07237); settings: reported previously; cited from earlier work
[8] = molecular target: PDIA1 (Homo sapiens, UniProt P07237); settings: cited from earlier work
Sequence of PDIA1 (P07237 18-508): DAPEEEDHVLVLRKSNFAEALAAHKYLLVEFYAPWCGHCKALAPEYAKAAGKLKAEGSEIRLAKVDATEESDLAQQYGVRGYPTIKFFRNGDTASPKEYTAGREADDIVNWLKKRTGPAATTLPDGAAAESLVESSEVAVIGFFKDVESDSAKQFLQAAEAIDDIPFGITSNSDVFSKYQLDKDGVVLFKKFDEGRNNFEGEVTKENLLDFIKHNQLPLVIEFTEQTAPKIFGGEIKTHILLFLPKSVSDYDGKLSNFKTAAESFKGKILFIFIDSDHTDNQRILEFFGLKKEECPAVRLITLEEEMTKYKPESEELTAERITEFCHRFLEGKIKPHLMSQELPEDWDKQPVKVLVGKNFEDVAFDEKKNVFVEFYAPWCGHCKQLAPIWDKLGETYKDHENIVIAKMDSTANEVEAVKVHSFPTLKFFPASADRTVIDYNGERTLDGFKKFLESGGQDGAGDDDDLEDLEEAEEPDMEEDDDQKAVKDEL

Sequence of PDI (P07237 18-508): as above

- IC50 [1]: 2 nM
- IC50 [2]: 8 nM
SMILES: CC(C)C[C@H](NC(=O)[C@H](Cc1ccccc1)NC(=O)c1cnccn1)B(O)O [Bortezomib, reference compound]

SMILES: O=C(CCC1CNc2ccccc21)NCCCOc1ccc(N2C(=O)/C(=C/c3ccc([N+](=O)[O-])s3)SC2=S)cc1 (stereo not shown) [CCF642-34A]
- ER stress response (induction of XBP-1S and CHOP) [3]: failed to induce acute ER stress response

SMILES: COc1ccc(N2C(=O)/C(=C\c3ccc([N+](=O)[O-])s3)SC2=S)cc1 [CCF642, reference compound]
- potency in restricting colony formation of RPMI-8226 compared to CD34+ HSPCs [4]: ~20 fold
- number of downregulated genes [5]: 257 genes
- number of upregulated genes [5]: 311 genes
- number of genes with changed expression compared to vehicle control ([5]; 2-fold change, p less than 0.05): 568 genes
- solubility [6]: insolubility
- IC50 [7]: sub-micromolar
- binding selectivity of CCF642, as reported previously [8]: off-target bindings in addition to its binding to PDIA1
